Assay [1] concerns the target T1, OGT (O-GlcNAc Transferase) (Homo sapiens, UniProt O15294).
T1 sequence (O15294 2-236 isoform O15294-4): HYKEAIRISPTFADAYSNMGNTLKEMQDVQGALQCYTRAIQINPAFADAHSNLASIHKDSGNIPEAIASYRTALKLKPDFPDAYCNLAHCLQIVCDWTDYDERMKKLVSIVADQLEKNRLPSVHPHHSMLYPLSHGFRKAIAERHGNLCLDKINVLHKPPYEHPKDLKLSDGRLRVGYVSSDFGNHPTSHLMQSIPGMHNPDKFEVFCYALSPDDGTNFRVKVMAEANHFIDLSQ
Briefly: UDP-Glo bioluminescent enzyme assay, dose response with OGT peptide and UDP-GlcNAc. It counts as biochemical.

Assay [2] addresses T2, FUT7 (Fucosyltransferase 7) (Homo sapiens, UniProt Q11130).
T2 sequence (Q11130 1-342): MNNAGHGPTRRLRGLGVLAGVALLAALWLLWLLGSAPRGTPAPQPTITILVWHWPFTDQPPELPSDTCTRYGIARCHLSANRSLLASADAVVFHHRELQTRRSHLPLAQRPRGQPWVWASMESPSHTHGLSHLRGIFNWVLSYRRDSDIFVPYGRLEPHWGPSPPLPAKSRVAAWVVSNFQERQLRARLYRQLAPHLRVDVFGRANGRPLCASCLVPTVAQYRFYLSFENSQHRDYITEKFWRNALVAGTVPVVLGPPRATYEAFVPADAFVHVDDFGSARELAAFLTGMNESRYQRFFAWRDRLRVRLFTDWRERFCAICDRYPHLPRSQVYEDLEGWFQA
In words: GDP-Glo bioluminescent enzyme assay, dose response with fetuin and GDP-fucose. Format: biochemical.

In assay [1], `N#Cc1c(SCc2ccc(C(=O)O)cc2)nc2c(c1-c1cccs1)CCCC2` [ST078925] had an IC50 of 55 µM.

For the compound `O=C(O)c1cc(O)c(O)c(O)c1` [Gallic acid], the IC50 in assay [2] is 0.6 µM. In assay [1], `O=C(O)C1CC(=O)N(CCC23CC4CC(CC(C4)C2)C3)C(=Nc2ccc(Cl)cc2)S1` (stereo not drawn) [ST045849] displayed an IC50 of 58 µM.

In general, IC50 refers to the midpoint of a concentration-inhibition curve. A low value points to greater potency.

The values above are taken from article PMC8539010, “Utility of Bioluminescent Homogeneous Nucleotide Detection Assays in Measuring Activities of Nucleotide-Sugar Dependent Glycosyltransferases and Studying Their Inhibitors” (Molecules, 2021).
